Test results published in US7534871B2, “Preparation and use of carbohydrate-based bicyclic ring structures with antimicrobial and cytostatic activity” (Kemin Pharma B.V.B.A., priority 2004, dated 2009).

Legend:
[1] = tested on: MRSA ATCC33591; experiment: Anti-bacterial activity, Bioscreen C growth curve: MRSA; type: cell-based, methicillin-resistant Staphylococcus aureus (MRSA); settings: Staphylococcus aureus, ATCC 33591 / LMG10147 / MRSA; 25 PPM; 35° C., 16 hours; negative control = 100; read-out: % of growth at 25 PPM compared to the negative control, MRSA ATCC33591 LMG10147
Procedure: (§1) For the determination of the anti-bacterial and anti-fungal activity the Bioscreen C Analyser Labsystems, Finland, was used. This is an automated reader-incubator. It measures growth continuously by vertical photometry (optical density), processes the data and provides a print out of the results. The area under the growth curve is automatically determined via the Biolink software.
(§2) The inoculum size of the bacteria is standardized to approximately 5×10^5 CFU/ml.
(§3) For bacteria, the 100-honey-well plates containing test chemical, Mueller-Hinton broth and inoculum (=sample) are incubated at 35° C. for 16 hours. Also wells without inoculum are incubated (=blanco). Yeasts are incubated 35° C. for 24 hours in RPMI 1640+MOPS buffer at 165 mM. Moulds also in RPMI 1640+MOPS buffer at 165 mM are incubated 25° C. for 5 days. All micro-organisms are screened against a known concentration of the reference antibiotics or antimycotics such as vancomycin, penicillin G, gentamicin or amphotericin B. The growth curve and the area under the growth curve can be determined using the Biolink software; this is illustrated in FIG. 1.
(§4) The area of the blanco is subtracted from the area of the sample, this number (delta) gives us an indication of the biological activity of the molecules tested and can be expressed as a % of growth at a specific dose compared to a negative control that has a value of 100, illustrated in FIG. 2. Screening of each dose of a specific compound is repeated 5 times. The dose used for all new molecules in all tests is 25 PPM or 25 μg/ml.
(§5) In Table 4 the results of the anti-bacterial activity is given for the new molecules. The micro-organisms used are Staphylococcus aureus, MRSA, VRE, Enterococcus faecalis, Salmonella typhimurium and Pseudomonas aeruginosa.

[2] = tested on: VRE ATCC700221; experiment: Anti-bacterial activity, Bioscreen C growth curve: VRE; type: cell-based, vancomycin-resistant Enterococcus (VRE); settings: Enterococcus, 35° C., 16 hours, negative control = 100, read-out: % of growth at 25 PPM compared to the negative control, VRE ATCC700221
Procedure: as §1, §2, §3, §4, §5

[3] = tested on: E. faecalis ATTC29212 LMG 8222; experiment: Anti-bacterial activity, Bioscreen C growth curve: E. faecalis; type: cell-based; settings: Enterococcus faecalis, LMG8222, 35° C., 16 hours, negative control = 100, read-out: % of growth at 25 PPM compared to the negative control, E. faecalis ATTC29212 LMG 8222
Procedure: as §1, §2, §3, §4, §5

[4] = tested on: Candida albicans IHEM 10284 - ATCC 24433; experiment: Anti-fungal activity, Bioscreen C growth curve: Candida albicans (yeast); type: cell-based; settings: Candida albicans, ATCC24433; 25 PPM; 35° C., 24 hours; negative control = 100; read-out: % of growth at a dose of 25 PPM compared to the negative control, Candida albicans IHEM 10284 - ATCC 24433
Procedure: as §1
The inoculum size of the yeast is standardized to 0.5-2.5×10^3 CFU/ml.
as §3, §4
(§6) In Table 5 the anti-fungal activity is given for the new molecules. The micro-organisms used were Candida albicans (a typical yeast) and Microsporum gypseum (a typical mold).
as §1, with “Also for” for “For”, “the” for “the anti-bacterial and”, “Labsystems Oy, Finland” for “Labsystems, Finland,”, “used.” for “used. This is an automated reader-incubator.”
(§7) The inoculum size of the yeast is standardized to 0.5-2.5×10^3 CFU/ml. The inoculum size of the mould is standardized to 0.4-5.0×10^4 CFU/ml. Yeasts are incubated 35° C. for 24 hours in RPMI 1640+MOPS buffer at 165 mM. Moulds also in RPMI 1640+MOPS buffer at 165 mM are incubated 25° C. for 5 days.
(§8) As a control, all micro-organisms are screened against some reference antibiotics with known MIC. Screening of each dose of a specific compound is repeated 5 times.

[5] = tested on: Microsporum gypseum IHEM 3999 - ATCC 14683; experiment: Anti-fungal activity, Bioscreen C growth curve: Microsporum gypseum (mold); type: cell-based; settings: for activity at 25 ppm: Nannizzia gypsea, ATCC14683, 120 h, 25° C., 5 days, negative control = 100, read-out: % of growth at a dose of 25 PPM compared to the negative control, Microsporum gypseum IHEM 3999 - ATCC 14683
Procedure: as §1
The inoculum size of the mould is standardized to 0.4-5.0×10^4 CFU/ml.
as §3, §4, §6
as §1, with “Also for” for “For”, “the” for “the anti-bacterial and”, “Labsystems Oy, Finland” for “Labsystems, Finland,”, “used.” for “used. This is an automated reader-incubator.”
as §7, §8

[6] = tested on: S. aureus ATTC29213 LMG10147; experiment: Anti-bacterial activity, Bioscreen C growth curve: S. aureus; type: cell-based; settings: Staphylococcus aureus, 35° C., 16 hours, negative control = 100, read-out: % of growth at 25 PPM compared to the negative control, S. aureus ATTC29213 LMG10147
Procedure: as §1, §2, §3, §4, §5

[7] = tested on: P. aeruginosa ATCC27853 LMG16217; experiment: Anti-bacterial activity, Bioscreen C growth curve: P. aeruginosa; type: cell-based, Pseudomonas aeruginosa; settings: Pseudomonas aeruginosa; 25 PPM; 35° C., 16 hours; negative control = 100; read-out: % of growth at 25 PPM compared to the negative control, P. aeruginosa ATCC27853 LMG16217
Procedure: as §1, §2, §3, §4, §5

[8] = tested on: S. typhimurium ATTC700408; experiment: Anti-bacterial activity, Bioscreen C growth curve: S. typhimurium; type: cell-based; settings: Salmonella enterica, LMG16217 / TYPHIMURIUM, 35° C., 16 hours, negative control = 100, read-out: % of growth at 25 PPM compared to the negative control, S. typhimurium ATTC700408 LMG16217
Procedure: as §1, §2, §3, §4, §5

Row | SMILES | activity at 25 ppm [1] [%] | activity at 25 ppm [2] [%] | activity at 25 ppm [3] [%] | activity at 25 ppm [4] [%] | activity at 25 ppm [5] [%] | activity at 25 ppm [6] [%] | activity at 25 ppm [7] [%] | activity at 25 ppm [8] [%] | anti-mold activity, in words ([5]; conclusion in text on Table 5)
1 | CO[C@H]1[C@@H]2OC(=O)CC/C=C/CCC(=O)OC[C@H]2OC[C@@H]1OC [KPE00001006] | 99.7 | 96.5 | 92.5 | 93.1 | 62 | 94.7 | 87.3 | 94.6 | 
2 | CO[C@@H]1[C@@H](OC)[C@H](Sc2ccccc2)O[C@@H]2COC(=O)CCC(O)C(O)CCC(=O)O[C@@H]12 (stereo partly drawn) [KPE00001007] | 97.8 | 93 | 97 | 94.7 | 76 | 94.9 | 86.2 | 89.7 | 
3 | CO[C@@H]1[C@@H](OC)[C@H](Sc2ccccc2)O[C@@H]2COCCC/C=C/CCCO[C@@H]12 [KPE00001009.1] | 107 | 82 | 87.5 | 93.9 | 60 | 98.3 | 91.6 | 90.1 | 
4 | CO[C@@H]1[C@@H](OC)[C@H](Sc2ccccc2)O[C@@H]2COCCC/C=C\CCCO[C@@H]12 [KPE00001009.2] | 111 | 86.4 | 85.5 | 103 | 54 | 100 | 67.6 | 90.1 | best anti-mold activity
5 | CO[C@H]1[C@@H]2OC(=O)CCCCCCC(=O)OC[C@H]2OC[C@@H]1OC [KPE00001010] | 110 | 93 | 90.6 | 95.5 | 60 | 102 | 80.7 | 88.8 | 
6 | CO[C@@H]1[C@@H](OC)[C@H](O)[C@@H](CO)O[C@H]1Sc1ccccc1 [KPE00001011] | 90.5 | 79 | 89 | 79.3 | 76.4 | 89 | 85 | 92.1 | 
7 | CO[C@@H]1[C@@H](OC)[C@H](O)[C@@H](CO)O[C@H]1Cc1ccccc1 [KPE00001020] | 99 | 99 | 98.4 | 91 | 78 | 97.9 | 94.4 | 92.3 | 
8 | O=C1CC/C=C/CCC(=O)O[C@H]2[C@H](OCc3ccccc3)[C@@H](OCc3ccccc3)[C@H](Sc3ccccc3)O[C@@H]2CO1 [KPE00001037] | 107 | 90 | 97.6 | 87.4 | 73 | 98.5 | 89.3 | 91 | 
9 | CO[C@@H]1[C@@H](OC)[C@H](c2ccccc2)O[C@@H]2COC(=O)CCC3OC3CCC(=O)O[C@@H]12 (stereo partly drawn) [KPE00001039] | 102 | 93 | 94.1 | 96.4 | 77 | 97.7 | 91.3 | 97 | 
10 | CO[C@@H]1[C@@H](OC)[C@H](c2ccccc2)O[C@@H]2COC(=O)CCC=CCCC(=O)O[C@@H]12 [KPE00001040] | 99.7 | 83.4 | 85.1 | 101 | 64 | 94 | 78.5 | 89 | 
